The test system of one data set is mice. In words: Hypobaric anoxia in mice (survival time). It is filed as in vivo, male mice of the Swiss strain. The settings on record: for ED (100% increase in survival time): Mus musculus, ip, intraperitoneal administration, dose which increases survival time by 100%, residual pressure 19 cm of Hg, read-out: MAD (mean active dose), absolute value; for therapeutic index relative to that of vincamine (times more favourable): from LD50 and MAD, mice, intraperitoneal, versus vincamine. The text has this:
The mice are kept in an atmosphere which is depleted in oxygen by creating a partial vacuum. The degree of anoxia was chosen after preliminary tests. The survival time of the control and treated animals is noted.
The chamber into which the animals are introduced is a chemical desiccator, divided into 7 compartments. Calcium oxide is placed in this chamber in order to absorb the expired carbon dioxide. This desicator is connected to a vacuum pump and to a manometer to measure the residual pressure.
The injections are carried out using a volume of 0.5 ml per 20 g of body weight.
7 animals are introduced at the same time into the chamber, i.e. 1 control mouse (treated with physiological serum), 3 mice each treated with a different dose of a reference substance, and three mice each treated with a different dose of a test substance.
The chamber is then evacuated until the residual pressure therein is 19 cm of Hg (this is achieved in approximately 30 seconds).
The survival time i.e. the time until the animals stop breathing of each of the animals is then recorded. […] The percentage increases are calculated from values obtained for each batch of animals.
The reference substance was vincamine.

The nature of data set [1]: Acute toxicity (LD50, mice, intraperitoneal). The settings on record: mouse, in vivo, ip; intraperitoneal administration; Swiss mice of both sexes; method of Miller and Tainter. On the procedure: The tests were carried out on mice of the Swiss strain of both sexes, each weighing 20 g on average. The LD50 's were calculated in accordance with the method of Miller and Tainter (Proc. Soc. exp. Biol. Med., 1944, 57, 261).

The structures appear in SMILES notation.

The values below come from patent publication US3966745A, “Vinvamine series cycloalkyl-alkyl esters” (Synthelabo, priority 1973, dated 1976).

By LD50 is commonly meant the dose at which mortality reaches 50%. A low value points to greater toxicity. Turning to `CC[C@]12CCCN3CCc4c(n(c5ccccc45)[C@@](O)(C(=O)OC)C1)[C@@H]32` [Vincamine, vincamine, reference compound], the ED (100% increase in survival time) in the data set with mice was determined as 8 mg/kg. Moreover, the LD50 in data set [1] came to 215 mg/kg.

Turning to `CCC12C=C(C(=O)OCC3CC3)n3c4c(c5ccccc53)CCN(CCC1)C42` (stereo not shown) [SL 73-005, Cyclopropylmethyl apovincaminate], in the data set on mice, the ED (100% increase in survival time) came to 6 mg/kg and the “therapeutic index relative to that of vincamine (times more favourable)” value stood at 2.5 times. This compound came in with an LD50 in data set [1] of 380 mg/kg.

Take `CCC12CCCN3CCc4c(n(c5ccccc45)C(C(=O)OCC4CC4)C1)C32` (stereo not shown) [SL 73-041, Cyclopropylmethyl desoxyvincaminate]: in the data set with mice, the ED (100% increase in survival time) was determined as 6 mg/kg and the “therapeutic index relative to that of vincamine (times more favourable)” value was determined as 1.6 times. Besides, the LD50 in data set [1] turned out to be 260 mg/kg.

As to `CCC12CCCN3CCc4c(n(c5ccccc45)C(O)(C(=O)OCC4CC4)C1)C32` (stereo not shown) [SL 72-401, Cyclopropylmethyl vincaminate], the ED (100% increase in survival time) in the data set with mice was 11 mg/kg. In data set [1], the LD50 came out at 220 mg/kg.
